≈ marks a conversion by molar mass, not a printed value.
How the values were obtained:
[1] = system: Plasmodium falciparum; test: Antimalarial activity against erythrocytic stage of Plasmodium falciparum NF54 assessed as inhibition of [3H]-hypoxanthine incorporation after 48 hrs by liquid scintillation counting analysis; assay type: functional, organism-based
[2] = system: L6; test: Cytotoxicity against rat L6 cells after 70 hrs by Alamar blue staining-based fluorometric analysis; assay type: cell-based; settings: L6, 70 h
[3] = Selectivity index, ratio of IC50 for rat L6 cells to IC50 for erythrocytic stage of Plasmodium falciparum NF54; assay type: toxicity; settings: read-out: Ratio IC50
[4] = system: Trypanosoma brucei rhodesiense; test: Antitrypanosomal activity against Trypanosoma brucei rhodesiense STIB900 bloodstream forms after 70 hrs by Alamar blue staining-based fluorometric analysis; assay type: functional, organism-based; settings: STIB900, 70 h
[5] = Selectivity index, ratio of IC50 for rat L6 cells to IC50 for Trypanosoma brucei rhodesiense STIB900 bloodstream forms; assay type: toxicity; settings: read-out: Ratio IC50
[6] = system: Plasmodium berghei; test: Antiplasmodial activity against GFP expressing Plasmodium berghei ANKA infected in NMRI mouse assessed as reduction in parasitemia at 10 mg/kg, ip administered 4 hrs, 24 hrs, 48 hrs, 72 hrs post infection for 4 days and measured 72 hrs post infection by FACS analysis relative to control; assay type: functional; set-up: scale not given: the % may be the effect or the level left
[7] = system: Plasmodium berghei; test: Antiplasmodial activity against GFP expressing Plasmodium berghei ANKA infected in NMRI mouse assessed as mouse mean survival days at 10 mg/kg, ip administered 4 hrs, 24 hrs, 48 hrs, 72 hrs post infection for 4 days and measured 72 hrs post infection by FACS analysis (reference value: 4 days); assay type: functional
[8] = Growth inhibition of human MRC5 cells at 140 uM after 72 hrs by XTT assay relative to control; assay type: cell-based; settings: read-out: GI
[9] = system: Mycolicibacterium smegmatis; test: Antimycobacterial activity against Mycobacterium smegmatis ATCC 14468 after 72 hrs by MTT dye-based microbroth dilution assay; assay type: functional; settings: ATCC 14468, 72 h
[10] = Growth inhibition of human MRC5 cells at 134 uM after 72 hrs by XTT assay relative to control; assay type: cell-based; settings: read-out: GI
[11] = system: Staphylococcus aureus; test: Antimicrobial activity against Staphylococcus aureus subsp. aureus ATCC 25923 assessed as zone of inhibition at 50 ug per disc after 24 hrs by disc diffusion assay; assay type: functional; settings: ATCC 25923, 24 h, read-out: DIZ
[12] = system: Bacillus subtilis; test: Antimicrobial activity against Bacillus subtilis subsp. subtilis ATCC 6051 assessed as zone of inhibition at 50 ug per disc after 24 hrs by disc diffusion assay; assay type: functional; settings: subsp. subtilis ATCC 6051, 24 h, read-out: DIZ
[13] = system: Escherichia coli; test: Antimicrobial activity against Escherichia coli ATCC 25922 assessed as zone of inhibition at 50 ug per disc after 24 hrs by disc diffusion assay; assay type: functional; settings: ATCC 25922, 24 h, read-out: DIZ
[14] = Growth inhibition of human MRC5 cells assessed as metabolic active cells level at 123.3 uM after 72 hrs by XTT assay relative to control; assay type: ADME, cell-based; settings: read-out: Activity
[15] = system: Candida tropicalis; test: Antimicrobial activity against Candida tropicalis ATCC 13803 assessed as zone of inhibition at 50 ug per disc after 48 hrs by disc diffusion assay; assay type: functional; settings: ATCC 13803, 48 h, read-out: DIZ
[16] = system: Candida parapsilosis; test: Antimicrobial activity against Candida parapsilosis ATCC 90018 assessed as zone of inhibition at 50 ug per disc after 48 hrs by disc diffusion assay; assay type: functional; settings: Lodderomyces parapsilosis, ATCC 90018, 48 h; read-out: DIZ
[17] = system: Candida albicans; test: Antimicrobial activity against Candida albicans ATCC 10231 assessed as zone of inhibition at 50 ug per disc after 48 hrs by disc diffusion assay; assay type: functional; settings: ATCC 10231, 48 h, read-out: DIZ
[18] = system: Klebsiella oxytoca; test: Antimicrobial activity against Klebsiella oxytoca ATCC 8724 assessed as zone of inhibition at 50 ug per disc after 24 hrs by disc diffusion assay; assay type: functional; settings: ATCC 8724, 24 h, read-out: DIZ
[19] = system: Staphylococcus epidermidis; test: Antimicrobial activity against Staphylococcus epidermidis ATCC 12228 assessed as zone of inhibition at 50 ug per disc after 24 hrs by disc diffusion assay; assay type: functional; settings: ATCC 12228, 24 h, read-out: DIZ
[20] = system: Pseudomonas aeruginosa; test: Antimicrobial activity against Pseudomonas aeruginosa ATCC 27853 assessed as zone of inhibition at 50 ug per disc after 24 hrs by disc diffusion assay; assay type: functional; settings: ATCC 27853, 24 h, read-out: DIZ
[21] = system: Plasmodium berghei; test: Antiplasmodial activity against GFP expressing Plasmodium berghei ANKA infected in NMRI mouse assessed as reduction in parasitemia at 50 mg/kg, ip administered 4 hrs, 24 hrs, 48 hrs, 72 hrs post infection for 4 days and measured 72 hrs post infection by FACS analysis relative to control; assay type: functional; set-up: scale not given: the % may be the effect or the level left
[22] = system: Plasmodium berghei; test: Antiplasmodial activity against GFP expressing Plasmodium berghei ANKA infected in NMRI mouse assessed as mouse mean survival days at 50 mg/kg, ip administered 4 hrs, 24 hrs, 48 hrs, 72 hrs post infection for 4 days and measured 72 hrs post infection by FACS analysis (reference value: 4 days); assay type: functional
[23] = Growth inhibition of human MRC5 cells at 120 uM after 72 hrs by XTT assay relative to control; assay type: cell-based; settings: read-out: GI
[24] = Growth inhibition of human MRC5 cells at 117 uM after 72 hrs by XTT assay relative to control; assay type: cell-based; settings: read-out: GI
[25] = system: MRC5; test: Cytotoxicity against human MRC5 cells after 72 hrs by XTT assay; assay type: cell-based; settings: MRC5, 72 h
[26] = Growth inhibition of human MRC5 cells assessed as metabolic active cells level at 147.7 uM after 72 hrs by XTT assay relative to control; assay type: ADME, cell-based; settings: read-out: Activity

SMILES	IC50 [1] [µM]	IC50 ([2]; read-out: IC50) [µM]	selectivity ratio [3]	IC50 [4] [µM]	selectivity ratio [5]	other results
CC1(C)CC(=[N+]2CCCC2)C=CN1Cc1ccccc1Cl	0.12	9.73	81.1	10.5	0.93	
CC1(C)CC(=[N+]2CCCC2)C=CN1Cc1ccc2ccccc2n1.[Cl-]	0.09	125	1390	16.6	7.53	Activity [6]: 0%; MSD [7]: 3 days; inhibition at 72 h, 140 µM [8]: 27 to 56%
NNC(=O)c1ccncc1 [ISONIAZID]						MIC [9]: 4 µg/mL (≈ 29.2 µM)
CC1(C)CC(=[N+]2CCCC2)C=CN1Cc1ccc(Cl)c(Cl)c1.[Cl-]	0.021	112	5350	12.4	9.03	Activity [6]: 39.9%; MSD [7]: 4 days; inhibition at 72 h, 134 µM [10]: 27 to 56%
NC[C@H]1O[C@H](O[C@H]2[C@H](O)[C@@H](O[C@H]3O[C@H](CO)[C@@H](O)[C@H](N)[C@H]3O)[C@H](N)C[C@@H]2N)[C@H](O)[C@@H](O)[C@@H]1O [KANAMYCIN]						zone of inhibition at 50 µg/disc [11]: 17 mm; zone of inhibition at 50 µg/disc [12]: 13 mm; zone of inhibition at 50 µg/disc [13]: 14 mm
CC1(C)CC(=[N+]2CCCC2)C=CN1Cc1ccccn1	2.18	> 327	> 150	100	> 3.26	
COc1cc(CN2C=CC(=[N+]3CCCC3)CC2(C)C)cc(OC)c1OC	1.1	192	174	16.2	11.8	
CC1(C)CC(=[N+]2CCCC2)C=CN1Cc1ccccc1	0.13	12.3	94.8	61.6	0.2	
CC(C)(C)c1ccc(CN2C=CC(=[N+]3CCCC3)CC2(C)C)cc1	0.04	0.017	0.43	0.67	0.025	viability at 72 h, 123.3 µM [14]: 0 to 10%
COc1ccc(CN2C=CC(=[N+]3CCCC3)CC2(C)C)cc1	0.11	168	1530	22.2	7.56	
CC1(C)CC(=[N+]2CCCC2)C=CN1Cc1ccc([N+](=O)[O-])cc1.[Cl-]	0.1	> 286	> 2860	79.8	> 3.58	MIC [9]: ≥ 128 µg/mL; zone of inhibition at 50 µg/disc [15]: 13 mm; zone of inhibition at 50 µg/disc [16]: 0 mm; zone of inhibition at 50 µg/disc [17]: 8 mm; zone of inhibition at 50 µg/disc [18]: 7 mm; zone of inhibition at 50 µg/disc [19]: 7 mm; zone of inhibition at 50 µg/disc [11]: 0 mm; zone of inhibition at 50 µg/disc [20]: 0 mm; zone of inhibition at 50 µg/disc [12]: 0 mm; zone of inhibition at 50 µg/disc [13]: 0 mm; Activity [21]: 78.4%; MSD [22]: 7 days
CC1(C)CC(=[N+]2CCCC2)C=CN1Cc1ccc(F)cc1.[Br-]	0.11	> 272	> 2480	39.2	> 6.94	Activity [6]: 31.6%; MSD [7]: 4 days
CC1(C)CC(=[N+]2CCCC2)C=CN1Cc1ccccc1C(F)(F)F	0.18	6.95	38.6	9.75	0.71	
CC1(C)S[C@@H]2[C@H](NC(=O)Cc3ccccc3)C(=O)N2[C@H]1C(=O)O [PENICILLIN G]						zone of inhibition at 50 µg/disc [18]: 8 mm
CN(C)[C@@H]1C(O)=C(C(N)=O)C(=O)[C@@]2(O)C(O)=C3C(=O)c4c(O)cccc4[C@@](C)(O)[C@H]3C[C@@H]12 [TETRACYCLINE]						zone of inhibition at 50 µg/disc [19]: 13 mm
COc1cc([C@@H]2c3cc4c(cc3[C@H](O)[C@H]3COC(=O)[C@H]23)OCO4)cc(OC)c1OC [PODOFILOX]						IC50 [2]: 0.012 µM
CC1(C)CC(=[N+]2CCCC2)C=CN1Cc1ccc2c(c1)OCO2	0.046	20.8	451	18.7	1.11	
CCN(CC)CCCC(C)Nc1ccnc2cc(Cl)ccc12 (centres undefined) [CHLOROQUINE]						Activity [6]: 99.6%; MSD [7]: 20 days
CC(C)c1ccc(CN2C=CC(=[N+]3CCCC3)CC2(C)C)cc1	0.015	0.176	11.7	3.24	0.054	
CC1(C)CC(=[N+]2CCCC2)C=CN1Cc1ccc(C(F)(F)F)cc1.[Br-]	0.036	125	3480	27.2	4.6	Activity [6]: 54.2%; MSD [7]: 7 days; MIC [9]: 64 µg/mL; zone of inhibition at 50 µg/disc [15]: 15 mm; zone of inhibition at 50 µg/disc [16]: 0 mm; zone of inhibition at 50 µg/disc [17]: 15 mm; zone of inhibition at 50 µg/disc [18]: 7 mm; zone of inhibition at 50 µg/disc [19]: 18 mm; zone of inhibition at 50 µg/disc [11]: 8 mm; zone of inhibition at 50 µg/disc [20]: 0 mm; zone of inhibition at 50 µg/disc [12]: 10 mm; zone of inhibition at 50 µg/disc [13]: 0 mm; inhibition at 72 h, 120 µM [23]: 27 to 56%
OC(Cn1cncn1)(Cn1cncn1)c1ccc(F)cc1F [FLUCONAZOLE]						zone of inhibition at 50 µg/disc [15]: 36 mm; zone of inhibition at 50 µg/disc [16]: 28 mm; zone of inhibition at 50 µg/disc [17]: 24 mm
CC1(C)CC(=[N+]2CCCC2)C=CN1Cc1ccc(Br)cc1.[Br-]	0.026	11.6	445	14.5	0.8	Activity [6]: 48.1%; MSD [7]: 4 days; inhibition at 72 h, 117 µM [24]: 27 to 56%
CC1(C)CC(=[N+]2CCCC2)C=CN1Cc1ccc(Cl)cc1.[Cl-]	0.027	20.1	743	19.7	1.02	IC50 [25]: 121 µM; Activity [6]: 45.8%; MSD [7]: 9 days; viability at 72 h, 147.7 µM [26]: 0 to 10%; MIC [9]: 32 µg/mL; zone of inhibition at 50 µg/disc [15]: 21 mm; zone of inhibition at 50 µg/disc [16]: 0 mm; zone of inhibition at 50 µg/disc [17]: 20 mm; zone of inhibition at 50 µg/disc [18]: 7 mm; zone of inhibition at 50 µg/disc [19]: 22 mm; zone of inhibition at 50 µg/disc [11]: 14 mm; zone of inhibition at 50 µg/disc [20]: 0 mm; zone of inhibition at 50 µg/disc [12]: 11 mm; zone of inhibition at 50 µg/disc [13]: 0 mm
CC1(C)CC(=[N+]2CCCC2)C=CN1Cc1ccc(Cl)cc1Cl	0.043	2.99	69.5	12.8	0.23	
CC1(C)CC(=[N+]2CCCC2)C=CN1Cc1ccccc1C#N	1.09	> 267	> 245	70.9	> 3.77	
Cc1ccc(CN2C=CC(=[N+]3CCCC3)CC2(C)C)cc1	0.1	94.9	949	4.24	22.4	
CC1(C)CC(=[N+]2CCCC2)C=CN1c1ccccc1	0.36					
CC1(C)CC(=[N+]2CCCC2)C=CN1Cc1cccc2ccccc12	0.063	0.61	9.68	0.89	0.69	

From ChEMBL document CHEMBL4138198, “Synthesis of new 1-benzyl tetrahydropyridinylidene ammonium salts and their antimicrobial and anticellular activities” (Eur J Med Chem, 2018)
